Experimental data from patent publication US11559538B2, “Substituted 1,2-oxaborolan-2-ols as PDE4 inhibitors” (Pfizer Inc., priority 2018, dated 2023).
Read-outs that look alike come from different tables or passages of the source.

Key:
[1] = biological target: PDE4B (aa 152-484, Uniprot ID Q07343) (Homo sapiens (Human), UniProt Q07343); experiment: PDE4 SPA assay (scintillation proximity assay); format: biochemical; conditions: read-out: PDE4B2 IC50
How it was run: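 Scintillation proximity read-out after a 30 min room-temperature reaction of ~81.6 pM PDE4B catalytic fragment (aa 152-484) with 1 μM tritiated/unlabeled cAMP, pH 7.5 Tris buffer with MgCl2 and Brij 35. Compound given ~10 min beforehand, 4-fold dilutions, ~2% DMSO; IC50 from four-parameter logistic curve.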

[2] = test system: IL-4; experiment: Cytokine assay: IL-4 release from PHA-L stimulated human PBMCs; format: cell-based; conditions: read-out: IL4 IC50
How it was run: (§1)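 Cytokines IL-4, IL-13 and IFNγ quantified by HTRF after 48 h, 37 °C culture of human PBMCs activated with PHA-L at 3.5 μg/mL final. Test compound, 4-fold dilutions from approximately 10 μM in 0.25% DMSO, was added briefly before stimulation; IC50 derived by four-parameter logistic regression.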

[3] = test system: IL-13; experiment: Cytokine assay: IL-13 release from PHA-L stimulated human PBMCs; format: cell-based; conditions: read-out: IL13 IC50
How it was run: as §1

[4] = test system: IFNγ; experiment: Cytokine assay: IFNγ release from PHA-L stimulated human PBMCs; format: cell-based
How it was run: as §1

Chain of PDE4B (aa 152-484, Uniprot ID Q07343) (Q07343 324-656): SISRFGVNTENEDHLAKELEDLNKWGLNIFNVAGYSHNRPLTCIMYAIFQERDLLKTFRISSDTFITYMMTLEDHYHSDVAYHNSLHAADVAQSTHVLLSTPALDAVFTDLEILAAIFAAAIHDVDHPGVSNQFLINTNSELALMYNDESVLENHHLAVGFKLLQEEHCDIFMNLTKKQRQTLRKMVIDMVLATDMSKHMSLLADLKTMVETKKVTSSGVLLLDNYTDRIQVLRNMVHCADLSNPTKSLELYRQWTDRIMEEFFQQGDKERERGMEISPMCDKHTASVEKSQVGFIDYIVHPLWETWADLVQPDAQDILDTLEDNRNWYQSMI

SMILES	IC50 [1] [nM]	IC50 ([2]; Homo sapiens, PBMC) [nM]	IC50 ([3]; Homo sapiens, PBMC) [nM]	IC50 ([4]; Homo sapiens, PBMC) [nM]	IC50 [2] [nM]	IC50 [3] [nM]	IC50 [4] [nM]
COc1ccc(-c2cncc(C3COB(O)C3)c2)cc1OC (single isomer, unassigned) [Example 1, 4-(5-(3,4-dimethoxyphenyl)pyridin-3-yl)-1,2-oxaborolan-2-ol]	3.16				14.3	284	2.98
CCCOc1cc(-c2cccc(C3COB(O)C3C)n2)ccc1OC (stereo not drawn) [Example 27, 4-(6-(4-methoxy-3-propoxyphenyl)pyridin-2-yl)-3-methyl-1,2-oxaborolan-2-ol]	73.4	3790	10000	209			
CCOc1cc(-c2nc(C3COB(O)C3)cs2)c(F)cc1OC (stereo not drawn) [Example 91, 4-(2-(5-ethoxy-2-fluoro-4-methoxyphenyl)thiazol-4-yl)-1,2-oxaborolan-2-ol]	3	5.9	460	3.92			
COc1ccc(-c2cncc(C3COB(O)C3)c2)cc1OCCO (single isomer, unassigned; enantiomer 2) [Example 228, (+) 4-(5-(3-(2-hydroxyethoxy)-4-methoxyphenyl)pyridin-3-yl)-1,2-oxaborolan-2-ol, enantiomer 2]	6.32				7.78	2570	14.2
CCOc1c(OC)ccc(-c2cncc(C3COB(O)C3)c2)c1C(F)(F)F (single isomer, unassigned) [Example 95, 4-(5-(3-ethoxy-4-methoxy-2-(trifluoromethyl)phenyl)pyridin-3-yl)-1,2-oxaborolan-2-ol]	4.87	7.36	461	2.87			
CCCOc1cc(-c2cncc(C3(CO)COB(O)C3)c2)ccc1OC (stereo not drawn) [Example 31, 4-(hydroxymethyl)-4-(5-(4-methoxy-3-propoxyphenyl)pyridin-3-yl)-1,2-oxaborolan-2-ol]	4.2	3.92	5730	2.96			
COc1cc(-c2ccc(OC)c(OC3CCCC3)c2)nc(C2COB(O)C2)n1 (stereo not drawn) [Example 175, 4-(4-(3-(cyclopentyloxy)-4-methoxyphenyl)-6-methoxypyrimidin-2-yl)-1,2-oxaborolan-2-ol]	5.03	14.3	2310	4.35			
CCCOc1cccc(-c2cncc(C3COB(O)C3)c2)c1 (stereo not drawn) [Example 145, 4-(5-(3-propoxphenyl)pyridin-3-yl)-1,2-oxaborolan-2-ol]	6.77	103	2240	52.1			
CCCOc1cc(-c2cccc(C3CCOB(O)C3)n2)ccc1OC (stereo not drawn) [Example 26, 4-(6-(4-methoxy-3-propoxyphenyl)pyridin-2-yl)-1,2-oxaborinan-2-ol]	399	1670	10000	3300			
CCOc1c(OC)ccc(-c2cccc(C3COB(O)C3)c2)c1C#N (stereo not drawn) [Example 191, 3-ethoxy-3′-(2-hydroxy-1,2-oxaborolan-4-yl)-4-methoxy-[1,1′-biphenyl]-2-carbonitrile]	3.84	176	1500	4.42			
CCOc1ccc(-c2cncc(C3COB(O)C3)c2)cc1OC (single isomer, unassigned; enantiomer2) [Example 188, 4-(5-(4-ethoxy-3-methoxyphenyl)pyridin-3-yl)-1,2-oxaborolan-2-ol, enantiomer2]	12.5	135	1530	12.2			
CCCOc1c(OC)ccc(-c2cccc(C3COB(O)C3)n2)c1F (stereo not drawn) [Example 213, 4-(6-(2-fluoro-4-methoxy-3-propoxyphenyl)pyridin-2-yl)-1,2-oxaborolan-2-ol]	6.32	80.9	1980	3.36			
CCOc1cc(C2COB(O)C2)nc(-c2ccc(OC)c(OCC)c2)n1 (single isomer, unassigned; enantiomer 1) [Example 223, 4-(6-ethoxy-2-(3-ethoxy-4-methoxyphenyl)pyrimidin-4-yl)-1,2-oxaborolan-2-ol, enantiomer 1]	6.67	30.9	2690	22.5			
COc1ccc(-c2cc(C3COB(O)C3)ccn2)cc1OC1CCCC1 (single isomer, unassigned; enantiomer 2) [Example 211, 4-(2-(3-(cyclopentyloxy)-4-methoxyphenyl)pyridin-4-yl)-1,2-oxaborolan-2-ol, enantiomer 2]	2.95	27.8	1840	1.83			
CCCOc1cc(-c2nc(C)cc(C3COB(O)C3)n2)ccc1OC (single isomer, unassigned) [Example 22, 4-(2-(4-methoxy-3-propoxyphenyl)-6-methylpyrimidin-4-yl)-1,2-oxaborolan-2-ol]	7.89	1.75	257	1.43			
CCOc1c(OC)ccc(-c2cccc(C3COB(O)C3)n2)c1F (stereo not drawn) [Example 199, 4-(6-(3-ethoxy-2-fluoro-4-methoxyphenyl)pyridin-2-yl)-1,2-oxaborolan-2-ol]	10.4	90.4	1590	4.55			

Now those with a lower IC50 [1], led by results:

IC50 [1] [nM]	IC50 ([2]; Homo sapiens, PBMC) [nM]	IC50 ([3]; Homo sapiens, PBMC) [nM]	IC50 ([4]; Homo sapiens, PBMC) [nM]	IC50 [2] [nM]	IC50 [3] [nM]	IC50 [4] [nM]	SMILES
0.85	7.21	680	0.79				COc1ccc(-c2cncc(C3COB(O)C3)n2)cc1OC1CCCC1 (single isomer, unassigned) [Example 126, 4-(6-(3-(cyclopentyloxy)-4-methoxyphenyl)pyrazin-2-yl)-1,2-oxaborolan-2-ol]
1.8	64.2	520	10				COc1cc(-c2cccc(C3COB(O)C3)c2)cc(C#N)c1OC (stereo not drawn) [Example 117, 3′-(2-hydroxy-1,2-oxaborolan-4-yl)-4,5-dimethoxy-[1,1′-biphenyl]-3-carbonitrile]
0.47	4.85	369	1.5				COc1ccc(-c2cncc(C3COB(O)C3)c2)cc1OC1CSC1 (stereo not drawn) [Example 68, 4-(5-(4-methoxy-3-(thietan-3-yloxy)phenyl)pyridin-3-yl)-1,2-oxaborolan-2-ol]
2.64	63.7	609	6.14				CCCOc1cc(-c2cccc(C3COB(O)C3)c2)ccc1OC (stereo not drawn) [Example 88, 4-(4′-methoxy-3′-propoxy-[1,1′-biphenyl]-3-yl)-1,2-oxaborolan-2-ol]
1.69	48.9	965	5.27				CCOc1ccc(-c2cncc(C3COB(O)C3)c2)cc1OCC (stereo not drawn) [Example 96, 4-(5-(3,4-diethoxyphenyl)pyridin-3-yl)-1,2-oxaborolan-2-ol]
0.61	48.4	496	5.1				CCCCCOc1cc(-c2cccc(C3COB(O)C3)c2)ccc1OC (stereo not drawn) [Example 110, 4-(4′-methoxy-3′-(pentyloxy)-[1,1′-biphenyl]-3-yl)-1,2-oxaborolan-2-ol]
2.27	103	1900	3.29				CCCOc1cc(-c2nccc(C3COB(O)C3)n2)ccc1OC (stereo not drawn) [Example 212, 4-(2-(4-methoxy-3-propoxyphenyl)pyrimidin-4-yl)-1,2-oxaborolan-2-ol]
0.34	0.29	1540	0.81				CCCOc1cc(-c2nc(OCCO)cc(C3COB(O)C3)n2)ccc1OC (single isomer, unassigned; enantiomer 1) [Example 196, (−) 4-(6-(2-hydroxyethoxy)-2-(4-methoxy-3-propoxyphenyl)pyrimidin-4-yl)-1,2-oxaborolan-2-ol, enantiomer 1]
1.83				16.1	2080	3.42	CCCOc1cc(-c2cncc(C3COB(O)C3)c2)ccc1OCC (single isomer, unassigned) [Example 106, 4-(5-(4-ethoxy-3-propoxyphenyl)pyridin-3-yl)-1,2-oxaborolan-2-ol]
2.4	40.8	415	2.61				CCOc1cc(-c2cccc(C3COB(O)C3)c2)ccc1OC (stereo not drawn) [Example 77, 4-(3′-ethoxy-4′-methoxy-[1,1′-biphenyl]-3-yl)-1,2-oxaborolan-2-ol]
2.02	1.81	1280	0.91				CCCOc1cc(-c2cncc(C3COB(O)C3)c2)ncc1OC (stereo not drawn) [Example 178]
0.69	57.4	533	1.5				CCOc1nc(-c2cccc(C3COB(O)C3)c2)ccc1OC (stereo not drawn) [Example 121, 4-(3-(6-ethoxy-5-methoxypyridin-2-yl)phenyl)-1,2-oxaborolan-2-ol]
0.9	9.78	531	2.65				CCOc1cc(-c2cncc(C3COB(O)C3)c2)cc(C#N)c1OC (stereo not drawn) [Example 118, 3-ethoxy-5-(5-(2-hydroxy-1,2-oxaborolan-4-yl)pyridin-3-yl)-2-methoxybenzonitrile]
0.12	0.82	252	0.98				CCCOc1nc(-c2cncc(C3COB(O)C3)c2)c(F)cc1OC (stereo not drawn) [Example 48, 4-(3-fluoro-5-methoxy-6-propoxy-[2,3′-bipyridin]-5′-yl)-1,2-oxaborolan-2-ol]
